Data: patent US11629201B2, “PSMA-binding agents and uses thereof” (ITM Isotope Technologies Munich SE, priority 2017, dated 2023)
Values joined by “and” are separate entries in the source; they are usually repeats but may differ in a detail not shown here. Identical values can stand only once.

Tests used:
mouse plasma proteins = experiment: Ultrafiltration assay, binding to mouse plasma proteins; type: in vitro ADME
Protocol: Filter Assay. […] In addition, the radioligands were diluted in PBS (buffer solution without proteins) as a control experiment. Aliquots of the solutions were loaded onto an ultrafiltration device and centrifuged. The filtered activity was measured with a γ-counter and used for calculating the plasma protein-bound activity (retained on the filter membrane) as the percentage of total added activity. […] Statistical analysis (one-way ANOVA with Bonferroni's multiple comparison post-test) was performed using GraphPad Prism software, version 7. A p-value of <0.05 was considered statistically significant.

[1] = test system: PSMA-positive PC-3 PIP cells; experiment: Cell uptake and internalization in PSMA-positive PC-3 PIP cells; type: cell-based
human plasma proteins = experiment: Ultrafiltration assay, binding to human plasma proteins; conditions: human plasma, ultrafiltration
Protocol: Therefore, the compounds were labeled with ^177Lu at a specific activity of 50 MBq/nmol and incubated in human plasma samples or PBS at room temperature. The free and plasma-bound fractions were separated using a centrifree ultrafiltration device (4104 centrifugal filter units [Millipore]; 30000 Da nominal molecular weight limit, methylcellulose micropartition membranes). The incubated solution was loaded to the ultrafiltration device and centrifuged at 2500 rpm for 40 min at 20° C. Samples from the filtrate were taken an analyzed for radioactivity in a gamma-counter. The amount of plasma-bound compound was calculated as the fraction of radioactivity measured in the filtrate relative to the corresponding loading solution (set to 100%).
Determination of Albumin-binding Properties. The binding of the radioligands to human plasma proteins was determined by an ultrafiltration assay. […] Three independent experiments were performed in duplicates with both radioligands and the data was fitted to a semi-logarithmic plot (non-linear regression, one-site, specific binding) to obtain the half maximum binding (B50) in GraphPad Prism software (version 7).
The ^177Lu-labeled PSMA ligands (50 MBq/nmol) were diluted in mouse plasma (Rockland, USA) and human plasma (Stiftung Blutspende SRK Aargau-Solothurn, Switzerland), respectively, and incubated for 15 min at room temperature. In addition, the radioligands were diluted in PBS (buffer solution without proteins) as a control experiment. Aliquots of the solutions were loaded onto an ultrafiltration device and centrifuged. The filtered activity was measured with a γ-counter and used for calculating the plasma protein-bound activity (retained on the filter membrane) as the percentage of total added activity. […] Statistical analysis (one-way ANOVA with Bonferroni's multiple comparison post-test) was performed using GraphPad Prism software, version 7. A p-value of <0.05 was considered statistically significant.

[2] = test system: PC-3 PIP/flu tumor-bearing mice; experiment: Biodistribution studies in PC-3 PIP/flu tumor-bearing mice; conditions: for Tumor-to-blood / Tumor-to-kidney / Tumor-to-liver: PC-3 PIP tumor
[3] = non-decay-corrected biodistribution data up to 192 h p.i.

With `O=C(O)CCC(NC(=O)NC(CCCCNC(=O)C(Cc1ccc2ccccc2c1)NC(=O)C1CCC(CNC(=O)C(CCCCNC(=O)CN2CCN(CC(=O)O)CCN(CC(=O)O)CCN(CC(=O)O)CC2)NC(=O)CC(NC(=O)CC(NC(=O)CCCc2ccc(I)cc2)C(=O)O)C(=O)O)CC1)C(=O)O)C(=O)O` (stereo not shown) [^177Lu-PSMA-ALB-05, metal not drawn] the plasma protein-bound fraction (mouse plasma proteins) was 77±2.1%, the cell uptake ([1]; 2 h) was 52-57% and the internalized fraction ([1]; 2 h) was 18-24%. The cell uptake ([1]; 4 h) was 60-63%, the internalized fraction ([1]; 4 h) was 20-26% and the plasma protein-bound fraction (human plasma proteins) was 95±0.6%. It also gave a Tumor-to-blood ([2]; 1 h p.i.) of 2.31 ± 0.58, a Tumor-to-kidney ([2]; 1 h p.i.) of 0.79 ± 0.02 and a Tumor-to-liver ([2]; 1 h p.i.) of 8.65 ± 2.21. The Blood ([2]; 4 h p.i.) was 10.2 ± 1.98 % IA/g, the Bone ([2]; 4 h p.i.) was 1.67 ± 0.27 % IA/g and the Heart ([2]; 4 h p.i.) was 3.82 ± 0.63 % IA/g. The Intestines ([2]; 4 h p.i.) was 1.33 ± 0.25 % IA/g, the Kidneys ([2]; 4 h p.i.) was 52.8 ± 7.17 % IA/g and the Liver ([2]; 4 h p.i.) was 2.96 ± 0.50 % IA/g. For the same compound, the Lung ([2]; 4 h p.i.) was 7.07 ± 1.44 % IA/g, the Muscle ([2]; 4 h p.i.) was 1.30 ± 0.23 % IA/g and the “PC-3 PIP Tumor” value ([2]; 4 h p.i.) was 75.3 ± 15.3 % IA/g. For the same compound, the “PC-3 flu Tumor” value ([2]; 4 h p.i.) was 2.10 ± 0.20 % IA/g, the Salivary glands ([2]; 4 h p.i.) was 2.75 ± 0.72 % IA/g and the Spleen ([2]; 4 h p.i.) was 3.29 ± 0.74 % IA/g. The Stomach ([2]; 4 h p.i.) was 1.15 ± 0.17 % IA/g, the Tumor-to-blood ([2]; 4 h p.i.) was 7.43 ± 1.43 and the Tumor-to-kidney ([2]; 4 h p.i.) was 1.42 ± 0.19. The Tumor-to-liver ([2]; 4 h p.i.) was 25.6 ± 4.58, the Blood ([2]; 24 h p.i.) was 1.67 ± 0.29 % IA/g and the Bone ([2]; 24 h p.i.) was 0.31 ± 0.08 % IA/g. The Heart ([2]; 24 h p.i.) was 0.65 ± 0.11 % IA/g, the Intestines ([2]; 24 h p.i.) was 0.28 ± 0.05 % IA/g and the Kidneys ([2]; 24 h p.i.) was 23.9 ± 4.02 % IA/g. For the same compound, the Liver ([2]; 24 h p.i.) was 0.82 ± 0.35 % IA/g, the Lung ([2]; 24 h p.i.) was 1.80 ± 0.78 % IA/g and the Muscle ([2]; 24 h p.i.) was 0.19 ± 0.06 % IA/g. The “PC-3 PIP Tumor” value ([2]; 24 h p.i.) was 79.4 ± 11.1 % IA/g, the “PC-3 flu Tumor” value ([2]; 24 h p.i.) was 0.59 ± 0.10 % IA/g and the Salivary glands ([2]; 24 h p.i.) was 0.49 ± 0.10 % IA/g. For the same compound, the Spleen ([2]; 24 h p.i.) was 1.13 ± 0.23 % IA/g, the Stomach ([2]; 24 h p.i.) was 0.28 ± 0.06 % IA/g and the Tumor-to-blood ([2]; 24 h p.i.) was 48.2 ± 7.04 and 48 ± 6.4. The Tumor-to-kidney ([2]; 24 h p.i.) was 3.38 ± 0.58 and 3.4 ± 0.5, the Tumor-to-liver ([2]; 24 h p.i.) was 106 ± 28.6 and 106 ± 26 and the Blood ([2]; 48 h p.i.) was 1.66 ± 0.37 % IA/g. It also gave a Bone ([2]; 48 h p.i.) of 0.28 ± 0.05 % IA/g, a Heart ([2]; 48 h p.i.) of 0.54 ± 0.15 % IA/g and an Intestines ([2]; 48 h p.i.) of 0.28 ± 0.10 % IA/g. The Kidneys ([2]; 48 h p.i.) was 12.8 ± 2.62 % IA/g, the Liver ([2]; 48 h p.i.) was 0.56 ± 0.16 % IA/g and the Lung ([2]; 48 h p.i.) was 1.48 ± 0.62 % IA/g. The Muscle ([2]; 48 h p.i.) was 0.20 ± 0.08 % IA/g, the “PC-3 PIP Tumor” value ([2]; 48 h p.i.) was 60.3 ± 10.7 % IA/g and the “PC-3 flu Tumor” value ([2]; 48 h p.i.) was 0.57 ± 0.09 % IA/g. For the same compound, the Salivary glands ([2]; 48 h p.i.) was 0.45 ± 0.10 % IA/g, the Spleen ([2]; 48 h p.i.) was 0.71 ± 0.23 % IA/g and the Stomach ([2]; 48 h p.i.) was 0.29 ± 0.08 % IA/g. For the same compound, the Tumor-to-blood ([2]; 48 h p.i.) was 36.7 ± 1.81 and 38 ± 2.5, the Tumor-to-kidney ([2]; 48 h p.i.) was 4.72 ± 0.18 and 5.0 ± 0.7 and the Tumor-to-liver ([2]; 48 h p.i.) was 110 ± 12.2 and 100 ± 32. For the same compound, the Blood ([2]; 96 h p.i.) was 1.79 ± 0.57 % IA/g, the Bone ([2]; 96 h p.i.) was 0.28 ± 0.04 % IA/g and the Heart ([2]; 96 h p.i.) was 0.70 ± 0.21 % IA/g. The Intestines ([2]; 96 h p.i.) was 0.30 ± 0.11 % IA/g, the Kidneys ([2]; 96 h p.i.) was 6.89 ± 0.31 % IA/g and the Liver ([2]; 96 h p.i.) was 0.74 ± 0.14 % IA/g. For the same compound, the Lung ([2]; 96 h p.i.) was 1.36 ± 0.29 % IA/g, the Muscle ([2]; 96 h p.i.) was 0.15 ± 0.06 % IA/g and the “PC-3 PIP Tumor” value ([2]; 96 h p.i.) was 45.0 ± 7.94 % IA/g. For the same compound, the “PC-3 flu Tumor” value ([2]; 96 h p.i.) was 0.49 ± 0.11 % IA/g, the Salivary glands ([2]; 96 h p.i.) was 0.46 ± 0.10 % IA/g and the Spleen ([2]; 96 h p.i.) was 0.64 ± 0.29 % IA/g. It also gave a Stomach ([2]; 96 h p.i.) of 0.24 ± 0.07 % IA/g, a Tumor-to-blood ([2]; 96 h p.i.) of 27.1 ± 10.0 and a Tumor-to-kidney ([2]; 96 h p.i.) of 6.51 ± 0.98. The Tumor-to-liver ([2]; 96 h p.i.) was 62.8 ± 18.8, the Blood ([2]; 144 h p.i.) was 1.75 ± 0.35 % IA/g and the Bone ([2]; 144 h p.i.) was 0.25 ± 0.05 % IA/g. For the same compound, the Heart ([2]; 144 h p.i.) was 0.65 ± 0.17 % IA/g, the Intestines ([2]; 144 h p.i.) was 0.27 ± 0.05 % IA/g and the Kidneys ([2]; 144 h p.i.) was 4.28 ± 0.26 % IA/g. The Liver ([2]; 144 h p.i.) was 0.72 ± 0.13 % IA/g, the Lung ([2]; 144 h p.i.) was 1.25 ± 0.18 % IA/g and the Muscle ([2]; 144 h p.i.) was 0.17 ± 0.04 % IA/g. The “PC-3 PIP Tumor” value ([2]; 144 h p.i.) was 33.9 ± 0.80 % IA/g, the “PC-3 flu Tumor” value ([2]; 144 h p.i.) was 0.52 ± 0.13 % IA/g and the Salivary glands ([2]; 144 h p.i.) was 0.46 ± 0.09 % IA/g. The Spleen ([2]; 144 h p.i.) was 0.56 ± 0.08 % IA/g, the Stomach ([2]; 144 h p.i.) was 0.23 ± 0.04 % IA/g and the Tumor-to-blood ([2]; 144 h p.i.) was 19.9 ± 3.88. The Tumor-to-kidney ([2]; 144 h p.i.) was 7.93 ± 0.30, the Tumor-to-liver ([2]; 144 h p.i.) was 47.9 ± 8.28 and the Blood ([2]; 192 h p.i.) was 1.48 ± 0.13 % IA/g. It also gave a Bone ([2]; 192 h p.i.) of 0.26 ± 0.04 % IA/g, a Heart ([2]; 192 h p.i.) of 0.59 ± 0.05 % IA/g and an Intestines ([2]; 192 h p.i.) of 0.24 ± 0.04 % IA/g. For the same compound, the Kidneys ([2]; 192 h p.i.) was 2.70 ± 0.36 % IA/g, the Liver ([2]; 192 h p.i.) was 0.84 ± 0.06 % IA/g and the Lung ([2]; 192 h p.i.) was 1.22 ± 0.26 % IA/g. For the same compound, the Muscle ([2]; 192 h p.i.) was 0.14 ± 0.01 % IA/g, the “PC-3 PIP Tumor” value ([2]; 192 h p.i.) was 27.9 ± 3.24 % IA/g and the “PC-3 flu Tumor” value ([2]; 192 h p.i.) was 0.45 ± 0.06 % IA/g. The Salivary glands ([2]; 192 h p.i.) was 0.37 ± 0.04 % IA/g, the Spleen ([2]; 192 h p.i.) was 0.55 ± 0.10 % IA/g and the Stomach ([2]; 192 h p.i.) was 0.16 ± 0.04 % IA/g. The Tumor-to-blood ([2]; 192 h p.i.) was 19.0 ± 2.97, the Tumor-to-kidney ([2]; 192 h p.i.) was 10.4 ± 0.25 and the Tumor-to-liver ([2]; 192 h p.i.) was 33.4 ± 1.64. The “AUC PC-3 PIP tumor” value [2, 3] was 6741 ± 421 % IA/g · h, the AUC blood [2, 3] was 387 ± 32 % IA/g · h and the AUC kidneys [2, 3] was 1837 ± 112 % IA/g · h. For the same compound, the AUC liver [2, 3] was 131 ± 11 % IA/g · h, the “Ratio of AUCs AUCTu-to-AUCBl” value ([2]; tumor to blood) was 17 and the “Ratio of AUCs AUC-Tu-to-AUC-Ki” value ([2]; tumor to kidneys) was 3.7. For the same compound, the “Ratio of AUCs AUCTu-to-AUCLi” value ([2]; tumor to liver) was 52.
